The record followed here is patent US7034056B2, “Aryl and biaryl compounds having MCH modulatory activity” (Pharmacopeia Drug Discovery, inc., priority 2001, dated 2006).

A word on the pKi: it is −log10 of the Ki, conventionally taken in molar units.

The assay addresses T1, hMCHR (MCH receptor) (Homo sapiens, UniProt Q99705).
T1 construct: (or internally produced); host or cells: CHO (Chinese hamster ovary) cells, membrane preparation
In words: MCH Assay PCOP Protocol ([125I]-MCH SPA binding to hMCHR-CHO membranes). The following applies: [125I]-MCH 0.5 nM, hMCHR-CHO membranes; read-out: Activity (ranges of Ki values). How it is done:
A reaction mixture of 10 μg hMCHR-CHO overexpressing membranes (from Receptor Biology, Inc., Beltsville, Md., or internally produced) and 100 μg/well WGA-SPA beads (from Amersham Pharmacia Biotech, Inc., Piscataway, N.J.)/100 μl was prepared in MCHR assay buffer (25 mM HEPES, pH 7.4, 10 mM NaCl, 10 mM MgCl2, 5 mM MnCl2, 0.1% BSA). […] The assay plates were shaken for 5 minutes on a plate shaker, then incubated for 2 hours before cpm/well were determined in a Microbeta Trilux counter (from PerkinElmer Wallac, Inc., Gaithersburg, Md.).

pKi: −log10 of the molar value.

T1 sequence (Q99705 whole entry): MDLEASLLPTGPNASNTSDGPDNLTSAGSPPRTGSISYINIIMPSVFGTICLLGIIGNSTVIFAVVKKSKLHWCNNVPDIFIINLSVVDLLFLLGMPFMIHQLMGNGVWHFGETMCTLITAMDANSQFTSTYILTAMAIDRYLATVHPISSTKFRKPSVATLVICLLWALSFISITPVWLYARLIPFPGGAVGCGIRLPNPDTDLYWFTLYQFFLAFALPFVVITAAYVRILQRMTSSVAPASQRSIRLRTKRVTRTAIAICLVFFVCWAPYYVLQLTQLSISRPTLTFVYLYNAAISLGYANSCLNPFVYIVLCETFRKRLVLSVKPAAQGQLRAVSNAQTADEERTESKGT

As to `CN(C)CCCNCCC(CNC(=O)Nc1cc(Cl)cc(Cl)c1)c1ccc(-c2ccc(F)c(F)c2)cc1` (stereo not drawn) [Example 92], the pKi was 7.30 to 9.40. As to `O=C(NCC(CCNC1CCCC1)c1ccc(-c2ccc[n+]([O-])c2)cc1)Nc1cc(Cl)cc(Cl)c1` (stereo not drawn) [Example 94], the negative-log Ki (pKi) was 7.30 to 9.40. As to `O=C(NCC(CCNC1CCCC1)c1ccc(-c2cc(F)cc(F)c2)cc1)Nc1cc(Cl)cc(Cl)c1` (stereo not drawn) [Example 95], the negative logarithm of the Ki (pKi) was 7.30 to 9.40. To `Cc1noc(C)c1-c1ccc(C(CCNC2CCCC2)CNC(=O)Nc2cc(Cl)cc(Cl)c2)cc1` (stereo not drawn) [Example 97] belongs 6.30 to 7.29; to `CN(C)CCCNCCC(CNC(=O)Nc1cc(Cl)cc(Cl)c1)c1ccc(-c2ccc(C#N)cc2)cc1` (stereo not drawn) [Example 98], 6.30 to 7.29. `CN(C)CCCNCCC(CNC(=O)Nc1cc(Cl)cc(Cl)c1)c1ccc(-c2cc(F)cc(F)c2)cc1` (stereo not drawn) [Example 99]: the pKi was 6.30 to 7.29. To `O=C(NCC(CCNC1CCCC1)c1ccc(-c2c(F)cccc2F)cc1)Nc1cc(Cl)cc(Cl)c1` (stereo not drawn) [Example 100] belongs 6.30 to 7.29; to `CN(C)CCCNCCC(CNC(=O)Nc1cc(Cl)cc(Cl)c1)c1ccc(-c2ccc(OC(F)(F)F)cc2)cc1` (stereo not drawn) [Example 101], 6.30 to 7.29; to `CN(C)CCCNCCC(CNC(=O)Nc1cc(Cl)cc(Cl)c1)c1ccc(-c2c(F)cccc2F)cc1` (stereo not drawn) [Example 102], 5.60 to 6.30. For the compound `Cc1ccc(C(CCNC2CCCC2)CNC(=O)Nc2cc(Cl)cc(Cl)c2)cc1C` (stereo not drawn) [Example 103], the pKi is 6.30 to 7.29. Regarding `O=C(NCC(CCNC1CCCC1)c1ccc2c(c1)OCO2)Nc1ccc(Cl)c([N+](=O)[O-])c1` (stereo not drawn) [Example 104], the negative-log Ki (pKi) is 6.30 to 7.29. Take `CC(CCNC1CCCC1)(CNC(=O)Nc1ccc(Cl)c([N+](=O)[O-])c1)c1ccc(Cl)c(Cl)c1` (stereo not drawn) [Example 105]: the pKi is 6.30 to 7.29.

Consider `O=C(NCC(CCNC1CCCC1)c1ccc2c(c1)OCO2)Nc1cc(Cl)cc(Cl)c1` (stereo not drawn) [Example 106], for which the pKi was 6.30 to 7.29.

In the case of `CC(CCNC1CCCC1)(CNC(=O)Nc1cc(Cl)cc(Cl)c1)c1ccc(Cl)c(Cl)c1` (stereo not drawn) [Example 107], the pKi is 6.30 to 7.29. Turning to `O=C(NCC(CCNC1CCCC1)c1ccc(Cl)cc1)Nc1cc(C(F)(F)F)cc(C(F)(F)F)c1` (stereo not drawn) [Example 108], the pKi was 6.30 to 7.29. For `Cc1ccc(C(CCNC2CCCC2)CNC(=O)Nc2cc(C(F)(F)F)cc(C(F)(F)F)c2)cc1C` (stereo not drawn) [Example 109], the pKi was 6.30 to 7.29. To `O=C(NCC(CCNC1CCCC1)c1cccs1)Nc1ccc(Cl)c([N+](=O)[O-])c1` (stereo not drawn) [Example 110] belongs 6.30 to 7.29. Consider `CN(C)CCCNCCC(C)(CNC(=O)Nc1cc(Cl)cc(Cl)c1)c1ccc(Cl)c(Cl)c1` (stereo not drawn) [Example 111], for which the pKi was 6.30 to 7.29. For the compound `CN(C)CCCNCCC(CNC(=O)Nc1cc(Cl)cc(Cl)c1)c1ccc(Cl)cc1` (stereo not drawn) [Example 112], the pKi was 5.60 to 6.30. As to `CC(CCNC1CCCC1)(CNC(=O)Nc1ccc(F)c([N+](=O)[O-])c1)c1ccc(Cl)c(Cl)c1` (stereo not drawn) [Example 113], the pKi is 5.60 to 6.30. On to `CC(CCNC1CCCC1)(CNC(=O)Nc1ccc(F)c(F)c1)c1ccc(Cl)c(Cl)c1` (stereo not drawn) [Example 114], for which the pKi was 5.60 to 6.30.

Consider `CN(C)CCCNCCC(C)(CNC(=O)Nc1ccc(Cl)c([N+](=O)[O-])c1)c1ccc(Cl)c(Cl)c1` (stereo not drawn) [Example 115], for which the negative-log Ki (pKi) was 5.60 to 6.30. As for `CN(C)CCCNCCC(CNC(=O)Nc1cc(Cl)cc(Cl)c1)c1ccc2c(c1)OCO2` (stereo not drawn) [Example 116], the pKi is 5.60 to 6.30.

Consider `CN(C)CCCNCCC(C)(CNC(=O)Nc1ccc(F)c([N+](=O)[O-])c1)c1ccc(Cl)c(Cl)c1` (stereo not drawn) [Example 117], for which the pKi is 5.60 to 6.30. With `Cc1ccc(C(CCNCCCN(C)C)CNC(=O)Nc2cc(Cl)cc(Cl)c2)cc1C` (stereo not drawn) [Example 118] the figure was 5.60 to 6.30.

As to `CN(C)CCCNCCC(C)(CNC(=O)Nc1ccc(F)c(F)c1)c1ccc(Cl)c(Cl)c1` (stereo not drawn) [Example 119], the pKi is 5.60 to 6.30.

Turning to `CN(C)CCCNCCC(CNC(=O)Nc1ccc(Cl)c([N+](=O)[O-])c1)c1ccc2c(c1)OCO2` (stereo not drawn) [Example 120], the pKi is 5.60 to 6.30.

As for `O=C(NCC(CCNC1CCCC1)c1ccc2c(c1)OCO2)Nc1ccc(F)c([N+](=O)[O-])c1` (stereo not drawn) [Example 121], the pKi was 5.60 to 6.30. Regarding `CCOC(=O)N1CCC(NCCC(CNC(=O)Nc2cc(Cl)cc(Cl)c2)c2ccc(Cl)cc2)CC1` (stereo not drawn) [Example 122], the pKi is 6.30 to 7.29. Regarding `CCOC(=O)N1CCC(NCCC(CNC(=O)Nc2cc(Cl)cc(Cl)c2)c2ccc(C)cc2)CC1` (stereo not drawn) [Example 123], the pKi is 6.30 to 7.29.

Turning to `O=C(NCC(CCNC1CCCC1)c1ccc(Cl)cc1)Nc1ccc(Cl)c(Cl)c1` (stereo not drawn) [Example 124], the pKi is 6.30 to 7.29. On to `COc1cc(CNCCC(CNC(=O)Nc2ccc(F)c([N+](=O)[O-])c2)c2ccc(Cl)c(Cl)c2)cc(OC)c1OC` (stereo not drawn) [Example 125], for which the pKi is 6.30 to 7.29.

As for `COc1cc(CNCCC(CNC(=O)Nc2ccc(F)c(Cl)c2)c2ccc(Cl)c(Cl)c2)cc(OC)c1OC` (stereo not drawn) [Example 126], the pKi was 6.30 to 7.29.

`Cc1ccc(C(CCNC2CCCC2)CNC(=O)Nc2ccc(Cl)c(Cl)c2)cc1` (stereo not drawn) [Example 127]: the pKi is 6.30 to 7.29. With `CCOC(=O)N1CCC(NCCC(CNC(=O)Nc2cccc(C(F)(F)F)c2)c2ccc(Cl)cc2)CC1` (stereo not drawn) [Example 128], the pKi was 6.30 to 7.29.

Turning to `COc1cc(CNCCC(CNC(=O)Nc2cc(Cl)cc(Cl)c2)c2ccc(Cl)c(Cl)c2)cc(OC)c1OC` (stereo not drawn) [Example 129], the pKi was 6.30 to 7.29.

Take `O=C(NCC(CCNC1CCCC1)c1ccc(Cl)c(Cl)c1)Nc1cccc(Cl)c1` (stereo not drawn) [Example 130]: the pKi was 6.30 to 7.29. For the compound `COc1cc(CNCCC(CNC(=O)Nc2ccc(F)c(F)c2)c2ccc(Cl)c(Cl)c2)cc(OC)c1OC` (stereo not drawn) [Example 131], the pKi is 6.30 to 7.29. Turning to `COc1cc(CNCCC(CNC(=O)Nc2cccc(C(F)(F)F)c2)c2ccc(Cl)c(Cl)c2)cc(OC)c1OC` (stereo not drawn) [Example 132], the pKi is 6.30 to 7.29. With `O=C(NCC(CCNC1CCCC1)c1ccc(Cl)c(Cl)c1)Nc1cccc(Br)c1` (stereo not drawn) [Example 133] the figure was 6.30 to 7.29; with `O=C(NCC(CCNC1CCCC1)c1ccc(Cl)c(Cl)c1)Nc1ccc(F)c(Cl)c1` (stereo not drawn) [Example 134], 6.30 to 7.29; with `O=C(NCC(CCNC1CCNC1)c1ccc(Cl)c(Cl)c1)Nc1ccc(Cl)c(Cl)c1` (stereo not drawn) [Example 135], 6.30 to 7.29.

For the compound `O=C(NCC(CCNC1CCCC1)c1ccc(Cl)cc1)Nc1cccc(Br)c1` (stereo not drawn) [Example 136], the pKi was 6.30 to 7.29. As to `CCOC(=O)N1CCC(NCCC(CNC(=O)Nc2cccc(C(F)(F)F)c2)c2ccc(C)cc2)CC1` (stereo not drawn) [Example 137], the pKi is 6.30 to 7.29.

Take `O=C(NCC(CCNCCc1ccc(O)cc1)c1ccc(Cl)c(Cl)c1)Nc1ccc(F)c([N+](=O)[O-])c1` (stereo not drawn) [Example 138]: the negative-log Ki (pKi) was 6.30 to 7.29. With `O=C(NCC(CCNC1CCCC1)c1ccc(Cl)cc1)Nc1cccc(Cl)c1` (stereo not drawn) [Example 139], the pKi is 5.60 to 6.30.

For `O=C(NCC(CCNCCc1ccc(O)cc1)c1ccc(Cl)c(Cl)c1)Nc1ccc(F)c(F)c1` (stereo not drawn) [Example 140], the pKi is 5.60 to 6.30. Turning to `O=C(NCC(CCNC1CCCC1)c1ccc(Cl)c(Cl)c1)Nc1ccc(F)c([N+](=O)[O-])c1` (stereo not drawn) [Example 141], the pKi is 5.60 to 6.30. Consider `Cc1ccc(C(CCNC2CCCC2)CNC(=O)Nc2cccc(Cl)c2)cc1` (stereo not drawn) [Example 142], for which the pKi is 5.60 to 6.30. Turning to `Cc1ccc(C(CCNC2CCCC2)CNC(=O)Nc2cccc(Br)c2)cc1` (stereo not drawn) [Example 143], the pKi was 5.60 to 6.30. With `O=C(NCC(CCNC1CCCC1)c1ccc(Cl)c(Cl)c1)Nc1ccc(F)c(F)c1` (stereo not drawn) [Example 144], the pKi is 5.60 to 6.30. Consider `Cc1ccc(C(CCNC2CCNC2)CNC(=O)Nc2ccc(Cl)c(Cl)c2)cc1` (stereo not drawn) [Example 145], for which the pKi was 5.60 to 6.30. On to `CCCOC(=O)N1CCN(CCC(CNC(=O)Nc2cc(C(F)(F)F)cc(C(F)(F)F)c2)c2ccc(Cl)c(Cl)c2)CC1` (stereo not drawn) [Example 146], for which the pKi was 6.30 to 7.29. In the case of `O=C(NCC(CCNC1CCCC1)c1cccc(-c2ccc3c(c2)OCO3)c1)Nc1cc(Cl)cc(Cl)c1` (stereo not drawn) [Example 147], the pKi is 6.30 to 7.29. Consider `O=C(NCC(CCNC1CCCC1)c1cccc(-c2cccc([N+](=O)[O-])c2)c1)Nc1cc(Cl)cc(Cl)c1` (stereo not drawn) [Example 148], for which the pKi was 6.30 to 7.29. With `N#Cc1cccc(-c2cccc(C(CCNC3CCCC3)CNC(=O)Nc3cc(Cl)cc(Cl)c3)c2)c1` (stereo not drawn) [Example 149], the pKi is 6.30 to 7.29. On to `CN(C)CCCNCCC(CNC(=O)Nc1cc(Cl)cc(Cl)c1)c1cccc(-c2ccc(C(F)(F)F)cc2)c1` (stereo not drawn) [Example 150], for which the pKi was 6.30 to 7.29. For the compound `CN(C)CCCNCCC(CNC(=O)Nc1cc(Cl)cc(Cl)c1)c1cccc(-c2ccc(Cl)cc2)c1` (stereo not drawn) [Example 151], the pKi is 6.30 to 7.29. For the compound `O=C(NCC(CCNC1CCCC1)c1cccc(-c2ccc(Cl)cc2)c1)Nc1cc(Cl)cc(Cl)c1` (stereo not drawn) [Example 152], the pKi is 6.30 to 7.29. As to `COc1cc(-c2cccc(C(CCNC3CCCC3)CNC(=O)Nc3cc(Cl)cc(Cl)c3)c2)cc(OC)c1OC` (stereo not drawn) [Example 153], the negative-log Ki (pKi) is 6.30 to 7.29. In the case of `COc1ccc(-c2cccc(C(CCNCCCN(C)C)CNC(=O)Nc3cc(Cl)cc(Cl)c3)c2)cc1` (stereo not drawn) [Example 154], the pKi is 6.30 to 7.29. Consider `O=C(NCC(CCNC1CCCC1)c1cccc(-c2ccc(F)cc2)c1)Nc1cc(Cl)cc(Cl)c1` (stereo not drawn) [Example 155], for which the pKi was 6.30 to 7.29. To `O=C(NCC(CCNC1CCCC1)c1cccc(-c2cccc(F)c2)c1)Nc1cc(Cl)cc(Cl)c1` (stereo not drawn) [Example 156] belongs 6.30 to 7.29; to `O=C(NCC(CCNC1CCCC1)c1cccc(-c2ccc(Cl)c(Cl)c2)c1)Nc1cc(Cl)cc(Cl)c1` (stereo not drawn) [Example 157], 6.30 to 7.29; to `O=C(NCC(CCNC1CCCC1)c1cccc(-c2cccc(Cl)c2)c1)Nc1cc(Cl)cc(Cl)c1` (stereo not drawn) [Example 158], 6.30 to 7.29. Regarding `O=C(NCC(CCNC1CCCC1)c1cccc(-c2ccc(F)c(Cl)c2)c1)Nc1cc(Cl)cc(Cl)c1` (stereo not drawn) [Example 159], the negative logarithm of the Ki (pKi) was 6.30 to 7.29.
